Values after ≈ are worked out from the molar mass of the structure shown. Read-outs that look alike come from different tables or passages of the source.
Legend:
[1] = tested on: Plasmodium falciparum K1; experiment: Growth inhibition of Plasmodium falciparum K1 (chloroquine-resistant) in vitro, [G-3H]-hypoxanthin incorporation; format: cell-based, Plasmodium falciparum (strain K1); settings: for IC50: Plasmodium falciparum, K1, 72 h, read-out: IC50 for P. falciparum K1; for Resistance index: ratio of the IC50 for K1 and the IC50 for NF54
Method in brief: (§1)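 Asynchronous intraerythrocytic cultures in human A+ erythrocytes (0.7% parasitemia, 2.5% suspension) in RPMI 1640 with HEPES, NaHCO3 and human serum, exposed to compound titrated over 6-7 steps for 72 h at 37° C, 3% O2. Growth by [G-3H]-hypoxanthin incorporation against untreated controls; IC50 by logit regression.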

[2] = tested on: Plasmodium berghei; experiment: animal or person; format: in vivo, Plasmodium berghei (strain ANKA) in mice; settings: Plasmodium berghei, mice, blood smears 48 h after treatment
Method in brief: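 Male albino mice (~25 g) infected i.v. on D0 with P. berghei ANKA (0.2 ml of 10^8 parasitized erythrocytes/ml); single s.c. and p.o. dose 24 h post-infection, 10 mg/kg screen then titration.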

[3] = tested on: Plasmodium falciparum strain NF54; experiment: Growth inhibition of Plasmodium falciparum NF54 (chloroquine-sensitive) in vitro, [G-3H]-hypoxanthin incorporation; format: cell-based; settings: chloroquine-sensitive strain NF54, 72 h, read-out: IC50 for P. falciparum NF54
Method in brief: as §1

[4] = po, single peroral dose of 10 mg/kg, read-out: Growth inhibition in % after po administration (GI%, percentage reduction of the parasitemia)
[5] = sc, single subcutaneous dose of 10 mg/kg, read-out: Growth inhibition in % after sc administration (GI%, percentage reduction of the parasitemia)

SMILES | IC50 [1] [ng/mL] | Resistance index [1] | inhibition in vivo at 10 mg/kg [2, 4] [%] | inhibition in vivo at 10 mg/kg [2, 5] [%] | IC50 [3] [ng/mL]
Cl.Cl.Clc1ccc2c(N[C@H]3CC[C@H](NCCc4ccc(Cl)c(Cl)c4)CC3)ccnc2c1 [Example 99, trans-N1-(7-Chloro-quinolin-4-yl)-N4-[2-(3,4-dichloro-phenyl)-ethyl]-cyclohexane-1,4-diamine dihydrochloride] | 4.2 | 1.3 | 91 | 96 | 3.3
COc1ccc(CN[C@H]2CC[C@H](Nc3ccnc4cc(Cl)ccc34)CC2)cc1.Cl.Cl [Example 100, trans N1-(7-Chloro-quinolin-4-yl)-N4-(4-methoxy-benzyl)-cyclohexane-1,4-diamine dihydrochloride] | 4 | 2.1 | 14 | 99 | 1.9
Cl.Cl.Clc1ccc2c(N[C@H]3CC[C@H](NCCc4c(Cl)cccc4Cl)CC3)ccnc2c1 [Example 101, trans-N1-(7-Chloro-quinolin-4-yl)-N4-[2-(2,6-dichloro-phenyl)-ethyl]-cyclohexane-1,4-diamine dihydrochloride] | 2.9 | 1.1 | 72 | 84 | 2.7
Cl.Cl.Clc1ccc2c(N[C@H]3CC[C@H](NCc4ccc(Cl)c(Cl)c4)CC3)ccnc2c1 [Example 102, trans N1-(7-Chloro-quinolin-4-yl)-N4-(3,4-dichloro-benzyl)-cyclohexane-1,4-diamine dihydrochloride] | 3.6 | 1.7 | 72 | 81 | 2.1
Cl.Cl.Clc1ccc2c(N[C@H]3CC[C@H](NCc4ccc5c(c4)OCO5)CC3)ccnc2c1 [Example 103, trans-N1 -Benzo[1,3]dioxol-5-ylmethyl-N4-(7-chloro-quinolin-4-yl)-cyclohexane-1,4-diamine dihydrochloride] | 4.6 | 2.2 | 89 | 99.8 | 2.1
COc1cc(CCN[C@H]2CC[C@H](Nc3ccnc4cc(Cl)ccc34)CC2)ccc1O.Cl.Cl [Example 104, trans-4-{2-[4-(7-Chloro-quinolin-4-ylamino)-cyclohexylamino]-ethyl}-2-methoxy-phenol dihydrochloride] | 20.2 | 5.6 | 63 | 100 | 3.6
COc1cccc(CCN[C@H]2CC[C@H](Nc3ccnc4cc(Cl)ccc34)CC2)c1OC.Cl.Cl [Example 105, trans-N1-(7-Chloro-quinolin-4-yl)-N4-[2-(2,3-dimethoxy-phenyl)-ethyl]-cyclohexane-1,4-diamine dihydrochloride] | 15.3 | 4.5 | 55 | 99 | 3.4
COc1cc(CN[C@H]2CC[C@H](Nc3ccnc4cc(Cl)ccc34)CC2)cc(OC)c1 [Example 106, trans-N1-(7-Chloro-quinolin-4-yl)-N4-(3,5-dimethoxy-benzyl)-cyclohexane-1,4-diamine] | 4.4 (≈ 10.3 nM) | 2.9 | 98 | 99.5 | 1.5 (≈ 3.52 nM)
Cl.Cl.Clc1cccc(CN[C@H]2CC[C@H](Nc3ccnc4cc(Cl)ccc34)CC2)c1 [Example 107, trans-N1-(3-Chloro-benzyl)-N4-(7-chloro-quinolin-4-yl)-cyclohexane-1,4-diamine dihydrochloride] | 3.4 | 2.4 | 84 | 95 | 1.4
COc1cc(OC)c(CN[C@H]2CC[C@H](Nc3ccnc4cc(Cl)ccc34)CC2)c(OC)c1.Cl.Cl [Example 108, trans N1-(7-Chloro-quinolin-4-yl)-N4-(2,4,6-trimethoxy-benzyl)-cyclohexane-1,4-diamine dihydrochloride] | 18.4 | 4.0 | 110 | 100 | 4.6
Cl.Cl.Clc1ccc(CN[C@H]2CC[C@H](Nc3ccnc4cc(Cl)ccc34)CC2)c(Cl)c1 [Example 109, trans-N1-(7-Chloro-quinolin-4-yl)-N4-(2,4-dichloro-benzyl)-cyclohexane-1,4-diamine dihydrochloride] | 3.8 | 2.1 | 75 | 91 | 1.8
COc1ccc(CN[C@H]2CC[C@H](Nc3ccnc4cc(Cl)ccc34)CC2)cc1OC.Cl.Cl [Example 110, trans-N1-(7-Chloro-quinolin-4-yl)-N4-(3,4-dimethoxy-benzyl)-cyclohexane-1,4-diamine dihydrochloride] | 17.2 | 6.1 | 45 | 99.6 | 2.8
COc1ccc(CN[C@H]2CC[C@H](Nc3ccnc4cc(Cl)ccc34)CC2)c(OC)c1.Cl.Cl [Example 111, trans-N1 (7-Chloro-quinolin-4-yl)-N4-(2,4-dimethoxy-benzyl)-cyclohexane-1,4-diamine dihydrochloride] | 10.4 | 3.6 | 25 | 99.8 | 2.9
COc1cc(CN[C@H]2CC[C@H](Nc3ccnc4cc(Cl)ccc34)CC2)cc(OC)c1OC.Cl.Cl [Example 112, trans-N1-(7-Chloro-quinolin-4-yl)-N4-(3,4,5-trimethoxy-benzyl)-cyclohexane-1,4-diamine dihydrochloride] | 17.2 | 4.0 | 99 | 99.9 | 4.3
CN(C)c1ccc(CN[C@H]2CC[C@H](Nc3ccnc4cc(Cl)ccc34)CC2)cc1.Cl.Cl.Cl [Example 113, trans-N1-(7-Chloro-quinolin-4-yl)-N4-(4-dimethylamino-benzyl)-cyclohexane-1,4-diamine trihydrochloride] | 7.6 | 2.5 | 99.7 | 99.9 | 3
Cl.Cl.Fc1cccc(F)c1CN[C@H]1CC[C@H](Nc2ccnc3cc(Cl)ccc23)CC1 [Example 114, trans-N1-(7-Chloro-quinolin-4-yl)-N4-(2,6-difluoro-benzyl)-cyclohexane-1,4-diamine dihydrochloride] | 8.4 | 2.9 | 99 | 99.9 | 2.9
